Values quoted from earlier work as cited in patent publication US20260263394A1, “MEDICAL PATCH […] […] AGENT” (LTS LOHMANN THERAPIE-SYSTEME AG, priority 2023, published 2026).

What was measured:
[1] = molecular target: TRPV1 (Homo sapiens, UniProt Q8NER1); details: relative to capsaicin
[2] = sub-microgram (less than 1/1,000,000th of a gram) quantities, oral

Sequence of TRPV1 (Q8NER1 whole entry, species assumed): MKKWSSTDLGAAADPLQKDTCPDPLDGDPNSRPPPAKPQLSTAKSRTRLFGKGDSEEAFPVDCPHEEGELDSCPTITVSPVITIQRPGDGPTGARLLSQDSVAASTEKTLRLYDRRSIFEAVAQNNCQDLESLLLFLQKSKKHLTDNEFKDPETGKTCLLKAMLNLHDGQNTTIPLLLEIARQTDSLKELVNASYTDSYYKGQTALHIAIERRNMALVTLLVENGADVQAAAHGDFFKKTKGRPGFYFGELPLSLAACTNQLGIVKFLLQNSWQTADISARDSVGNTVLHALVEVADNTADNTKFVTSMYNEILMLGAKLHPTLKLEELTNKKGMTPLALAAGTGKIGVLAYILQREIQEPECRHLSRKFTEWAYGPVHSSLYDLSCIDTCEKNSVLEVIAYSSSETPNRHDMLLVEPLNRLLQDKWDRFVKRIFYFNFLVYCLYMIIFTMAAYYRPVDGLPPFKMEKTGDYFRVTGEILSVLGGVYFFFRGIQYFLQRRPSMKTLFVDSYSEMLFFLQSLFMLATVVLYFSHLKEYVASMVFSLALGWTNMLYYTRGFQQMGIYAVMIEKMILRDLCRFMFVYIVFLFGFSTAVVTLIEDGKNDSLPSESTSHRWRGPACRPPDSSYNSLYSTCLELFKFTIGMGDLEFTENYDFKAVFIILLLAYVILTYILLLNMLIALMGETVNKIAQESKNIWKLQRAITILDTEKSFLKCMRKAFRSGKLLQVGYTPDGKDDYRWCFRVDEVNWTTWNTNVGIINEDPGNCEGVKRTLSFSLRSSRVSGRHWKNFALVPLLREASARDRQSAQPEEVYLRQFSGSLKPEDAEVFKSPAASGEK

C=C(C)[C@]12C[C@@H](C)[C@@]34O[C@@](Cc5ccccc5)(O[C@@H]1[C@@H]3C=C(COC(=O)Cc1ccc(O)c(OC)c1)C[C@]1(O)C(=O)C(C)=C[C@@H]41)O2 [Resiniferatoxin, [(1R,2R,6R,10S,11R,13R, 15R, 17R)-13-benzyl-6-hydroxy-4,17-dimethyl-5-oxo-15-(prop-1-en-2-yl)-12,14,18-trioxapentacyclo [11.4.1.0^1,10.0^2,6.0^11,15]octadeca-3,8-dien-8-yl]methyl 2-(4-hydroxy-3-methoxyphenyl)acetate]
times higher binding affinity for TRPV1 than capsaicin [1]: about 500 times
effect when ingested orally [2]: severe burning pain
